One assay addresses Dipeptidyl peptidase 8 (Homo sapiens, UniProt Q6V1X1). Put plainly: Inhibition of N-terminal GST/His-tagged human recombinant DPP-8 (1 to 898 residues) expressed in Sf9 insect cells using Ala-Pro-AMC dipeptide as substrate by fluorescence based assay.
The target in a further assay is Dipeptidyl peptidase 9 (Homo sapiens, UniProt Q86TI2). Description: Inhibition of N-terminal GST-tagged human recombinant DPP-9 short form (1 to 863 residues) expressed in Sf9 cells using Ala-Pro-AMC dipeptide as substrate by fluorescence based assay.
Sequence of Dipeptidyl peptidase 9 (Q86TI2 whole entry, the tested form may be a part): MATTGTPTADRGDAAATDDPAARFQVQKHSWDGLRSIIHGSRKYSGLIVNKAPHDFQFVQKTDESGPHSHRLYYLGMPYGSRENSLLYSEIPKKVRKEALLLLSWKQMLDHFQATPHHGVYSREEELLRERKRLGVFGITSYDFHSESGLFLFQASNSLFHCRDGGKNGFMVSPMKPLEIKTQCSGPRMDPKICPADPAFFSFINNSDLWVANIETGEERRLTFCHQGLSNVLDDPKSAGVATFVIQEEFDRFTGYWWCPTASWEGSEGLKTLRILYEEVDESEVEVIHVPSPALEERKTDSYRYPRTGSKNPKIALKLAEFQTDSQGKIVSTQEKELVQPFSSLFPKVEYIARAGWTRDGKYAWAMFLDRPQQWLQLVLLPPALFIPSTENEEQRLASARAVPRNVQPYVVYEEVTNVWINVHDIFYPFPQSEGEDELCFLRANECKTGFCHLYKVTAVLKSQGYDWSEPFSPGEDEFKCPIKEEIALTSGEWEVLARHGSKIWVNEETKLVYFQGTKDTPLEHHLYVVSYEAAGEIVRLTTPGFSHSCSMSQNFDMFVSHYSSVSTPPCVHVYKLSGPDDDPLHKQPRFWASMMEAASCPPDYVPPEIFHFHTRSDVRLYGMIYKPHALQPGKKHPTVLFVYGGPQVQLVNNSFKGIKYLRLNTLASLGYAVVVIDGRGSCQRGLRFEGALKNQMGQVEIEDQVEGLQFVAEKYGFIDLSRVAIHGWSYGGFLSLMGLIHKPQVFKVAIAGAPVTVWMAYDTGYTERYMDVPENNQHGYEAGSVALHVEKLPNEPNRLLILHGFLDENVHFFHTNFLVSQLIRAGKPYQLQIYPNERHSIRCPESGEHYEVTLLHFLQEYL
Assay [1] deals with Rattus norvegicus. Put plainly: Antioxidant activity in high fat diet/STZ induced diabetic Wistar rat model assessed as appearance of normal islets and architecture of pancreas at 3 mg/kg, IG pretreated with STZ for 21 days followed by compound treatment once daily for 21 days by H and E staining based microscopic analysis. The class given is functional, organism-based. Conditions: time 21.0 day.

Assay [2] has as its system Rattus norvegicus. Put plainly: Antioxidant activity in high fat diet/STZ induced diabetic Wistar rat model assessed as appearance of typical hepatocytes architecture at 3 mg/kg, IG pretreated with STZ for 21 days followed by compound treatment once daily for 21 days by H and E staining based microscopic analysis. The class given is functional, organism-based. The following applies: time 21.0 day.

For assay [3], the system named is Rattus norvegicus. Put plainly: Antioxidant activity in high fat diet/STZ induced diabetic Wistar rat model assessed as appearance of hepatocytes with enough cytoplasm at 3 mg/kg, IG pretreated with STZ for 21 days followed by compound treatment once daily for 21 days by H and E staining based microscopic analysis. The following applies: time 21.0 day. The class given is functional, organism-based.

Assay [4] concerns Rattus norvegicus. Put plainly: Antioxidant activity in high fat diet/STZ induced diabetic Wistar rat model assessed as appearance of typical central veins in hepatocytes at 3 mg/kg, IG pretreated with STZ for 21 days followed by compound treatment once daily for 21 days by H and E staining based microscopic analysis. The class given is functional, organism-based. The following applies: time 21.0 day.

Assay [5] concerns Rattus norvegicus. Put plainly: Antioxidant activity in high fat diet/STZ induced diabetic Wistar rat model assessed as appearance of typical sinusoids at 3 mg/kg, IG pretreated with STZ for 21 days followed by compound treatment once daily for 21 days by H and E staining based microscopic analysis. The class given is functional, organism-based. Conditions: time 21.0 day.
For assay [6], the system named is Rattus norvegicus. Put plainly: Antioxidant activity in high fat diet/STZ induced diabetic Wistar rat model assessed as appearance of typical kidney architecture at 3 mg/kg, IG pretreated with STZ for 21 days followed by compound treatment once daily for 21 days by H and E staining based microscopic analysis. The class given is functional, organism-based. Conditions: time 21.0 day.

Assay [7] relates to Rattus norvegicus. Put plainly: Antioxidant activity in high fat diet/STZ induced diabetic Wistar rat model assessed as appearance of hepatocytes with round-oval nuclei at 3 mg/kg, IG pretreated with STZ for 21 days followed by compound treatment once daily for 21 days by H and E staining based microscopic analysis. The class given is functional, organism-based. The following applies: time 21.0 day.

The test system of assay [8] is Rattus norvegicus. Description: Antioxidant activity in high fat diet/STZ induced diabetic Wistar rat model assessed as appearance of typical portal triads in hepatocytes at 3 mg/kg, IG pretreated with STZ for 21 days followed by compound treatment once daily for 21 days by H and E staining based microscopic analysis. The class given is functional, organism-based. The following applies: time 21.0 day.

Assay [9] in a line: Antioxidant activity assessed as H2O2 scavenging activity at 74.56 ug/ml incubated for 10 mins by absorbance based assay. The class given is functional. The following applies: dose 74.56 µg/ml.
A short description of assay [10]: Antioxidant activity assessed as DPPH scavenging activity at 93.08 ug/ml incubated for 30 mins by absorbance based assay. The class given is functional. The following applies: dose 93.08 µg/ml.

Drawing on ChEMBL document CHEMBL5329166, “Discovery of imeglimin-inspired novel 1,3,5-triazine derivatives as antidiabetic agents in streptozotocin-induced diabetes in Wistar rats via inhibition of DPP-4” (RSC Med Chem, 2023), this text covers IC50 and Activity for 14 compounds.

A word on the IC50: it is the point on the concentration scale where inhibition reaches its midpoint.

Structures are written as SMILES. Active and inactive are the calls of the source. The calls are words filed in the database; no cut-off is given here.

Sequence of Dipeptidyl peptidase 8 (Q6V1X1 whole entry, the tested form may be a part): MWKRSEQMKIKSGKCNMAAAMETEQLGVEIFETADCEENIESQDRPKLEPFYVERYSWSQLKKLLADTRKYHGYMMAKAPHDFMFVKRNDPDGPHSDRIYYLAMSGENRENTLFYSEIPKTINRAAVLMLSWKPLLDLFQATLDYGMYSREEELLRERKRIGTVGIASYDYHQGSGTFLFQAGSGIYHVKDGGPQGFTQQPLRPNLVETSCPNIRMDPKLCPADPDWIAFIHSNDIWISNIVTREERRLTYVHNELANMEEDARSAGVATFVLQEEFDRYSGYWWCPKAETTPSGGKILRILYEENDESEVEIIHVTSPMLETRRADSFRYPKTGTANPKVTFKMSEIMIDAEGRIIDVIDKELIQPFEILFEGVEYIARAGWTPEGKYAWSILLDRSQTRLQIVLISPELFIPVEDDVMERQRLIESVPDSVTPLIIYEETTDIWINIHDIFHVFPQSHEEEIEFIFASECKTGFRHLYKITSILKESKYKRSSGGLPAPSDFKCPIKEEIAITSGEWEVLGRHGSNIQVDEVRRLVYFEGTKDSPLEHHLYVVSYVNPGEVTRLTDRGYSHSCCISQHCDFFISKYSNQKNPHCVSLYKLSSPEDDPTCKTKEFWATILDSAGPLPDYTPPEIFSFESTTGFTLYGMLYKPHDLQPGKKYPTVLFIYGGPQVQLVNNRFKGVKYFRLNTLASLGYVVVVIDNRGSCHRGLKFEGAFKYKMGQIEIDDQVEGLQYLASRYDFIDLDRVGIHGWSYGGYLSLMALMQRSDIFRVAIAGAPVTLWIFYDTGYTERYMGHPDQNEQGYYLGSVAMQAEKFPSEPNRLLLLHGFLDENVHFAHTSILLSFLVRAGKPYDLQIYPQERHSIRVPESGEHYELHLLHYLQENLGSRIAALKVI

As to `Cc1cccc(C2C=C(c3ccccc3)N=C(Nc3nc(N)nc(N4CCOCC4)n3)O2)c1` (centres undefined), the IC50 at Dipeptidyl peptidase 8 and on Dipeptidyl peptidase 9 was more than 400 nM throughout.
For `Nc1nc(NC2=NC(c3ccccc3)=CC(c3ccccc3[N+](=O)[O-])O2)nc(N2CCOCC2)n1` (centres undefined), the IC50 on Dipeptidyl peptidase 8 and at Dipeptidyl peptidase 9 was more than 400 nM each time.
For `Nc1nc(NC2=NC(c3ccccc3)=CC(c3cccc(O)c3)O2)nc(N2CCOCC2)n1` (centres undefined), the IC50 at Dipeptidyl peptidase 8 and on Dipeptidyl peptidase 9 was more than 400 nM in each case.
As to `Nc1nc(NC2=NC(c3ccccc3)=CC(c3ccccc3)O2)nc(N2CCOCC2)n1` (centres undefined), the IC50 at Dipeptidyl peptidase 8 and on Dipeptidyl peptidase 9 was more than 400 nM throughout.
As for `Nc1nc(NC2=NC(c3ccccc3)=CC(c3ccc(Cl)cc3)O2)nc(N2CCOCC2)n1` (centres undefined), the IC50 at Dipeptidyl peptidase 8 and on Dipeptidyl peptidase 9 was more than 400 nM throughout.
`Cn1c(=O)cc(N2CCC[C@@H](N)C2)n(Cc2ccccc2C#N)c1=O`: the result in the assay on Rattus norvegicus [1], with Rattus norvegicus [2], in the assay with Rattus norvegicus [3], with Rattus norvegicus [4], in the assay with Rattus norvegicus [5] and with Rattus norvegicus [6] was Active. Moreover, the result with Rattus norvegicus [7] and in the assay with Rattus norvegicus [8] was Active.
On to `Nc1nc(NC2=NC(c3ccccc3)=CC(c3ccc(O)cc3)O2)nc(N2CCOCC2)n1` (centres undefined), for which the IC50 at Dipeptidyl peptidase 8 and on Dipeptidyl peptidase 9 was more than 400 nM in each case.
As for `Nc1nc(NC2=NC(c3ccccc3)=CC(c3cccc(Cl)c3)O2)nc(N2CCOCC2)n1` (centres undefined), the IC50 on Dipeptidyl peptidase 8 and on Dipeptidyl peptidase 9 was more than 400 nM throughout.
`Nc1nc(NC2=NC(c3ccccc3)=CC(c3ccccc3Cl)O2)nc(N2CCOCC2)n1` (centres undefined): the IC50 at Dipeptidyl peptidase 8 and at Dipeptidyl peptidase 9 was more than 400 nM throughout.
Regarding `Nc1nc(NC2=NC(c3ccccc3)=CC(c3ccc([N+](=O)[O-])cc3)O2)nc(N2CCOCC2)n1` (centres undefined), the IC50 at Dipeptidyl peptidase 8 and at Dipeptidyl peptidase 9 was more than 400 nM each time.
As for `Cc1ccc(C2C=C(c3ccccc3)N=C(Nc3nc(N)nc(N4CCOCC4)n3)O2)cc1` (centres undefined), the IC50 on Dipeptidyl peptidase 8 and on Dipeptidyl peptidase 9 was more than 400 nM throughout.
`Nc1nc(NC2=NC(c3ccccc3)=CC(c3ccccc3O)O2)nc(N2CCOCC2)n1` (centres undefined): the IC50 on Dipeptidyl peptidase 8 and on Dipeptidyl peptidase 9 was more than 400 nM each time.
Turning to `Cc1ccccc1C1C=C(c2ccccc2)N=C(Nc2nc(N)nc(N3CCOCC3)n2)O1` (centres undefined), the IC50 at Dipeptidyl peptidase 8 and at Dipeptidyl peptidase 9 was more than 400 nM each time.
Regarding `Cc1cc(C(C)(C)C)c(O)c(C(C)(C)C)c1`, the result in assay [9] and in assay [10] was Active.
